Measured values from PMC6381276 (mBio, 2019).

Target: McpN (PA2788) chemoreceptor (Pseudomonas aeruginosa, UniProt Q9I055)
Assay: biochemical

Chain of McpN (PA2788) chemoreceptor (Q9I055 44-179): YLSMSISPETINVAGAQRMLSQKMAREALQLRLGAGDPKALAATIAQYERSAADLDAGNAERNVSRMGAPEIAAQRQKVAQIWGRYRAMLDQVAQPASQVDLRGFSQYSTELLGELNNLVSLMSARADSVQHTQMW

O=[N+]([O-])O [nitrate]
Kd: 47 ± 8 µM
